Publication PMC12102759 (Protein Science : A Publication of the Protein Society, 2025)

These sequences were tested on G3BP1 NFT2. Details: library DMS-CoV; bait G3BP1 NFT2; prey N; peptide APRITFGGPSDSTGSN; listed as aa = residue placed at this position; column sums to 1.
Assay type: binding, human

Sequence	DMS PSSM value, T (position 5)	DMS PSSM value, T (position 13)
APRITFGGPSDSTGSN T5K (APRIKFGGPSDSTGSN)	0	
APRITFGGPSDSTGSN T5L (APRILFGGPSDSTGSN)	0.04693	
APRITFGGPSDSTGSN T5M (APRIMFGGPSDSTGSN)	0	
APRITFGGPSDSTGSN T5N (APRINFGGPSDSTGSN)	0	
APRITFGGPSDSTGSN T5P (APRIPFGGPSDSTGSN)	0	
APRITFGGPSDSTGSN T5Q (APRIQFGGPSDSTGSN)	0	
APRITFGGPSDSTGSN T5R (APRIRFGGPSDSTGSN)	0	
APRITFGGPSDSTGSN T5S (APRISFGGPSDSTGSN)	0.002921	
APRITFGGPSDSTGSN T5V (APRIVFGGPSDSTGSN)	0	
APRITFGGPSDSTGSN T5W (APRIWFGGPSDSTGSN)	0	
APRITFGGPSDSTGSN T5Y (APRIYFGGPSDSTGSN)	0	
APRITFGGPSDSTGSN T13A (APRITFGGPSDSAGSN)		0.02642
APRITFGGPSDSTGSN T13D (APRITFGGPSDSDGSN)		9.878e-5
APRITFGGPSDSTGSN T13E (APRITFGGPSDSEGSN)		0.0383
APRITFGGPSDSTGSN T13F (APRITFGGPSDSFGSN)		0.002251
APRITFGGPSDSTGSN T13G (APRITFGGPSDSGGSN)		0.00113
APRITFGGPSDSTGSN T13H (APRITFGGPSDSHGSN)		0.0006139
APRITFGGPSDSTGSN T13I (APRITFGGPSDSIGSN)		0.0005621
APRITFGGPSDSTGSN T13K (APRITFGGPSDSKGSN)		0
APRITFGGPSDSTGSN T13L (APRITFGGPSDSLGSN)		0.003677
APRITFGGPSDSTGSN T13M (APRITFGGPSDSMGSN)		0.06406
APRITFGGPSDSTGSN T13N (APRITFGGPSDSNGSN)		0.01901
APRITFGGPSDSTGSN T13P (APRITFGGPSDSPGSN)		0.005019
APRITFGGPSDSTGSN T13Q (APRITFGGPSDSQGSN)		0.01432
APRITFGGPSDSTGSN T13R (APRITFGGPSDSRGSN)		0
APRITFGGPSDSTGSN T13S (APRITFGGPSDSSGSN)		9.878e-5
APRITFGGPSDSTGSN T13V (APRITFGGPSDSVGSN)		0.7895
APRITFGGPSDSTGSN T13W (APRITFGGPSDSWGSN)		0
APRITFGGPSDSTGSN T13Y (APRITFGGPSDSYGSN)		0.001423

Same assay, conditions: library DMS-CoV; bait G3BP1 NFT2; prey N; peptide RNAPRITFGGPSDSTG; listed as aa = residue placed at this position; column sums to 1

Sequence	DMS PSSM value, A (position 3)	DMS PSSM value, D (position 13)	DMS PSSM value, F (position 8)	DMS PSSM value, G (position 9)	DMS PSSM value, G (position 10)	DMS PSSM value, G (position 16)	DMS PSSM value, I (position 6)	DMS PSSM value, N (position 2)	DMS PSSM value, P (position 4)	DMS PSSM value, P (position 11)
RNAPRITFGGPSDSTG	0	0	1	0	0	0	0	0	0	1
RNAPRITFGGPSDSTG A3D (RNDPRITFGGPSDSTG)	0.1526									
RNAPRITFGGPSDSTG A3E (RNEPRITFGGPSDSTG)	0.2371									
RNAPRITFGGPSDSTG A3F (RNFPRITFGGPSDSTG)	0									
RNAPRITFGGPSDSTG A3G (RNGPRITFGGPSDSTG)	0.6104									
RNAPRITFGGPSDSTG A3H (RNHPRITFGGPSDSTG)	0									
RNAPRITFGGPSDSTG A3I (RNIPRITFGGPSDSTG)	0									
RNAPRITFGGPSDSTG A3K (RNKPRITFGGPSDSTG)	0									
RNAPRITFGGPSDSTG A3L (RNLPRITFGGPSDSTG)	0									
RNAPRITFGGPSDSTG A3M (RNMPRITFGGPSDSTG)	0									
RNAPRITFGGPSDSTG A3N (RNNPRITFGGPSDSTG)	0									
RNAPRITFGGPSDSTG A3P (RNPPRITFGGPSDSTG)	0									
RNAPRITFGGPSDSTG A3Q (RNQPRITFGGPSDSTG)	0									
RNAPRITFGGPSDSTG A3R (RNRPRITFGGPSDSTG)	0									
RNAPRITFGGPSDSTG A3S (RNSPRITFGGPSDSTG)	0									
RNAPRITFGGPSDSTG A3T (RNTPRITFGGPSDSTG)	0									
RNAPRITFGGPSDSTG A3V (RNVPRITFGGPSDSTG)	0									
RNAPRITFGGPSDSTG A3W (RNWPRITFGGPSDSTG)	0									
RNAPRITFGGPSDSTG A3Y (RNYPRITFGGPSDSTG)	0									
RNAPRITFGGPSDSTG D13A (RNAPRITFGGPSASTG)		0								
RNAPRITFGGPSDSTG D13E (RNAPRITFGGPSESTG)		0								
RNAPRITFGGPSDSTG D13F (RNAPRITFGGPSFSTG)		0								
RNAPRITFGGPSDSTG D13G (RNAPRITFGGPSGSTG)		0								
RNAPRITFGGPSDSTG D13H (RNAPRITFGGPSHSTG)		0								

Sequence	DMS PSSM value, A (position 3)	DMS PSSM value, D (position 13)	DMS PSSM value, F (position 8)	DMS PSSM value, G (position 9)	DMS PSSM value, G (position 10)	DMS PSSM value, G (position 16)	DMS PSSM value, I (position 6)	DMS PSSM value, N (position 2)	DMS PSSM value, P (position 4)	DMS PSSM value, P (position 11)
RNAPRITFGGPSDSTG D13I (RNAPRITFGGPSISTG)		0								
RNAPRITFGGPSDSTG D13K (RNAPRITFGGPSKSTG)		0								
RNAPRITFGGPSDSTG D13L (RNAPRITFGGPSLSTG)		0								
RNAPRITFGGPSDSTG D13M (RNAPRITFGGPSMSTG)		0								
RNAPRITFGGPSDSTG D13N (RNAPRITFGGPSNSTG)		0								
RNAPRITFGGPSDSTG D13P (RNAPRITFGGPSPSTG)		1								
RNAPRITFGGPSDSTG D13Q (RNAPRITFGGPSQSTG)		0								
RNAPRITFGGPSDSTG D13R (RNAPRITFGGPSRSTG)		0								
RNAPRITFGGPSDSTG D13S (RNAPRITFGGPSSSTG)		0								
RNAPRITFGGPSDSTG D13T (RNAPRITFGGPSTSTG)		0								
RNAPRITFGGPSDSTG D13V (RNAPRITFGGPSVSTG)		0								
RNAPRITFGGPSDSTG D13W (RNAPRITFGGPSWSTG)		0								
RNAPRITFGGPSDSTG D13Y (RNAPRITFGGPSYSTG)		0								
RNAPRITFGGPSDSTG F8A (RNAPRITAGGPSDSTG)			0							
RNAPRITFGGPSDSTG F8D (RNAPRITDGGPSDSTG)			0							
RNAPRITFGGPSDSTG F8E (RNAPRITEGGPSDSTG)			0							
RNAPRITFGGPSDSTG F8G (RNAPRITGGGPSDSTG)			0							
RNAPRITFGGPSDSTG F8H (RNAPRITHGGPSDSTG)			0							
RNAPRITFGGPSDSTG F8I (RNAPRITIGGPSDSTG)			0							
RNAPRITFGGPSDSTG F8K (RNAPRITKGGPSDSTG)			0							
RNAPRITFGGPSDSTG F8L (RNAPRITLGGPSDSTG)			0							
RNAPRITFGGPSDSTG F8M (RNAPRITMGGPSDSTG)			0							
RNAPRITFGGPSDSTG F8N (RNAPRITNGGPSDSTG)			0							
RNAPRITFGGPSDSTG F8P (RNAPRITPGGPSDSTG)			0							

Sequence	DMS PSSM value, A (position 3)	DMS PSSM value, D (position 13)	DMS PSSM value, F (position 8)	DMS PSSM value, G (position 9)	DMS PSSM value, G (position 10)	DMS PSSM value, G (position 16)	DMS PSSM value, I (position 6)	DMS PSSM value, N (position 2)	DMS PSSM value, P (position 4)	DMS PSSM value, P (position 11)
RNAPRITFGGPSDSTG F8Q (RNAPRITQGGPSDSTG)			0							
RNAPRITFGGPSDSTG F8R (RNAPRITRGGPSDSTG)			0							
RNAPRITFGGPSDSTG F8S (RNAPRITSGGPSDSTG)			0							
RNAPRITFGGPSDSTG F8T (RNAPRITTGGPSDSTG)			0							
RNAPRITFGGPSDSTG F8V (RNAPRITVGGPSDSTG)			0							
RNAPRITFGGPSDSTG F8W (RNAPRITWGGPSDSTG)			0							
RNAPRITFGGPSDSTG F8Y (RNAPRITYGGPSDSTG)			0							
RNAPRITFGGPSDSTG G9A (RNAPRITFAGPSDSTG)				0						
RNAPRITFGGPSDSTG G9D (RNAPRITFDGPSDSTG)				1						
RNAPRITFGGPSDSTG G9E (RNAPRITFEGPSDSTG)				0						
RNAPRITFGGPSDSTG G9F (RNAPRITFFGPSDSTG)				0						
RNAPRITFGGPSDSTG G9H (RNAPRITFHGPSDSTG)				0						
RNAPRITFGGPSDSTG G9I (RNAPRITFIGPSDSTG)				0						
RNAPRITFGGPSDSTG G9K (RNAPRITFKGPSDSTG)				0						
RNAPRITFGGPSDSTG G9L (RNAPRITFLGPSDSTG)				0						
RNAPRITFGGPSDSTG G9M (RNAPRITFMGPSDSTG)				0						
RNAPRITFGGPSDSTG G9N (RNAPRITFNGPSDSTG)				0						
RNAPRITFGGPSDSTG G9P (RNAPRITFPGPSDSTG)				0						
RNAPRITFGGPSDSTG G9Q (RNAPRITFQGPSDSTG)				0						
RNAPRITFGGPSDSTG G9R (RNAPRITFRGPSDSTG)				0						
RNAPRITFGGPSDSTG G9S (RNAPRITFSGPSDSTG)				0						
RNAPRITFGGPSDSTG G9T (RNAPRITFTGPSDSTG)				0						

Same assay, conditions: library DMS-CoV; bait G3BP1 NFT2; prey N; peptide RNAPRITFGGPSDSTG; listed as aa = residue placed at this position; column sums to 1

Sequence	DMS PSSM value, R (position 5)	DMS PSSM value, S (position 12)	DMS PSSM value, S (position 14)	DMS PSSM value, T (position 7)	DMS PSSM value, T (position 15)
RNAPRITFGGPSDSTG	0	0	0	0	0
